Results from patent US7687609B2, “Galectin-glycosaminoglycan complex and method for controlling galectin activity” (National Institute of Advanced Industrial Science and …, priority 2006, dated 2010).

Tests used:
[1] = target: T1, Galectin-3 (Homo sapiens, UniProt P17931); experiment: FAC competitive inhibition test, binding of galectin-3 with LNnT; conditions: 5.0 nM PA-LNnT; for V2 − V0: V1 − V0 30.6 μl
T1 construct: made in house
Method: (§1) A model test on a competitive inhibition was carried out by FAC, in which binding of a galectin molecule with a carbohydrate which binds to the galectin molecule is inhibited by a glycosaminoglycan molecule. The FAC was carried out in accordance with the above-described example (1). In addition, as a model carbohydrate which is known to be bound to the galectin molecule, a pyridylamination product of lacto-N-neotetraose (LNnT hereinafter, Gal β1-4 GlcNAc β1-3 Gal β1-4 Glc, purchased from Seikagaku Corporation) was used.
(§2) In the test, 5.0 nM in final concentration of PA-LNnT sample solution was mixed with various concentration of glycosaminoglycan molecule (not pyridyl-aminated, namely an inhibitory carbohydrate) to measure the eluate volume (V2 value) by FAC, and the inhibition ratio (%) was calculated as follows from the eluate volume (V1 value) before the mixing and the eluate volume (V0 value) of a negative control sample. Inhibition ratio (%)=100×(V1−V2)/(V1−V0) Formula 1
(§3) In this connection, the unlabeled (not pyridyl-aminated) CH4, CH6, CH10, HA4 and CSA4 were respectively prepared at Seikagaku Corporation in accordance with a conventionally known method.

[2] = target: T2, Galectin-9C (Homo sapiens, UniProt O00182); experiment: FAC affinity test on galectin-immobilized column; format: binding; conditions: pyridyl-aminated carbohydrate; galectin-9C immobilized 3.0 mg/ml; less than 5 μl = below interaction detection limit
T2 construct: N and C respectively represent N-terminal side carbohydrate-recognition domain and C-terminal side carbohydrate-recognition domain; made in house
T2 sequence (O00182 227-355 limits assumed): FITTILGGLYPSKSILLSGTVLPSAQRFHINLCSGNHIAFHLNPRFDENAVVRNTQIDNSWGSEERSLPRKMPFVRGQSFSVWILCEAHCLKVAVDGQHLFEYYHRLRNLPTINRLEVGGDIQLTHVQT
Method: (§4) Various galectin molecules-immobilized columns were prepared by the method described by Nakamura S, Yagi F, Totani K, Ito γ and Hirabayashi J in FEBS J., 272, 2784-2799 (2005), using NHS Sepharose (manufactured by Amersham Bioscience) as the carrier for immobilizing galectin molecules and in accordance with the instructions attached thereto (put in parentheses is immobilization concentration, mg galectin/ml carrier).
(§5) Each galectin molecule was immobilized onto the carrier at the following concentration; galectin-1 (0.8 mg/ml), galectin-3 (0.5 mg/ml), galectin-8N (3.6 mg/ml), galectin-8C (4.0 mg/ml), galectin-9N (3.6 mg/ml), galectin-9C (3.0 mg/ml). The carrier on which each galectin was immobilized was charged into a stainless steel miniature column (2 mm in inner diameter, 10 mm in length; manufactured by Shimadzu Corp.).
(§6) A high performance liquid chromatography (HPLC) system was equipped with a galectin molecule-immobilized column, and the test was carried out by the method described in Nakamura S, Yagi F, Totani K, Ito γ and Hirabayashi J in FEBS J., 272, 2784-2799 (2005).
(§7) As the negative control sample, pyridyl-aminated N-acetylglucosamine (PA-GlcNAc, manufactured by Takara Bio, pyridyl-aminated glycosaminoglycan-oligosaccharide sample control) or pyridyl-aminated pullulan (prepared by carrying out pyridylamination of standard pullulan manufactured by Shodex, pyridyl-aminated glycosaminoglycan polysaccharide sample control) was used, and a V−V0 value was calculated from their eluate volume (V0 value) measured by fluorescence detection and the eluate volume (V value) of the sample, namely pyridyl-aminated glycosaminoglycan carbohydrate, and this was used as the index of interaction strength (Protein, Nucleic Acid and Enzyme, 48(8), 1206-1212 (2003)).
(§8) V−V0 values of pyridyl-aminated glycosaminoglycans (HA, CH, DN, NAH, CSA, CSB, CSC, CSD, CSE, KS-I and KS-II) were calculated based on PA-GlcNAc, and V−V0 values of pyridyl-aminated glycosaminoglycan-oligosaccharides (G2K1, G1L1, G4L4, L2L2, L2L4, L4L4, SL2L4 and CH3 to CH12) based on pyridyl-aminated pullulan, respectively.
(§9) In this connection, when the calculated value of the V−V0 value was less than 5 μl, it was regarded as less than the interaction detection limit in this example.

[3] = target: T3, Galectin-9N (Homo sapiens, UniProt O00182); experiment: FAC affinity test on galectin-immobilized column; format: binding; conditions: pyridyl-aminated carbohydrate; galectin-9N immobilized 3.6 mg/ml; less than 5 μl = below interaction detection limit
T3 construct: N and C respectively represent N-terminal side carbohydrate-recognition domain and C-terminal side carbohydrate-recognition domain; made in house
T3 sequence (O00182 17-148 limits assumed): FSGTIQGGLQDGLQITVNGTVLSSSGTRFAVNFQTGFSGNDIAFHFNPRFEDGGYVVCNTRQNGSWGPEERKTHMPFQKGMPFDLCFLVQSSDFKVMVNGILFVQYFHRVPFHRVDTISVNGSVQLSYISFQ
Method: as §4, §5, §6, §7, §8, §9

[4] = target: T1, Galectin-3; experiment: FAC affinity test on galectin-immobilized column; format: binding; conditions: pyridyl-aminated carbohydrate; galectin-3 immobilized 0.5 mg/ml; less than 5 μl = below interaction detection limit
Method: as §4, §5, §6, §7, §8, §9

[5] = target: T4, Galectin-1 (Homo sapiens, UniProt P09382); experiment: FAC affinity test on galectin-immobilized column; format: binding; conditions: pyridyl-aminated carbohydrate; galectin-1 immobilized 0.8 mg/ml; less than 5 μl = below interaction detection limit
T4 construct: made in house
T4 sequence (P09382 whole entry): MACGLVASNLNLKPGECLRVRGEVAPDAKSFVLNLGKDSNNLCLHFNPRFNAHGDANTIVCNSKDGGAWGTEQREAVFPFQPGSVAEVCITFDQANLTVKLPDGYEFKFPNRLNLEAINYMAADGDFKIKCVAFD
Method: as §4, §5, §6, §7, §8, §9

[6] = target: T3, Galectin-9N; experiment: FAC competitive inhibition test, binding of galectin-9N with LNnT; conditions: for Inhibition ratio / V2 − V0: 5.0 nM PA-LNnT; for V2 − V0: V1 − V0 20.3 μl
Method: as §1, §2, §3

[7] = final conc. 10 μM unlabeled inhibitor
[8] = final conc. 50 μM unlabeled inhibitor
[9] = final conc. 250 μM unlabeled inhibitor
[10] = final conc. 1 μM unlabeled inhibitor
[11] = final conc. 5 μM unlabeled inhibitor

T1 sequence (P17931 whole entry): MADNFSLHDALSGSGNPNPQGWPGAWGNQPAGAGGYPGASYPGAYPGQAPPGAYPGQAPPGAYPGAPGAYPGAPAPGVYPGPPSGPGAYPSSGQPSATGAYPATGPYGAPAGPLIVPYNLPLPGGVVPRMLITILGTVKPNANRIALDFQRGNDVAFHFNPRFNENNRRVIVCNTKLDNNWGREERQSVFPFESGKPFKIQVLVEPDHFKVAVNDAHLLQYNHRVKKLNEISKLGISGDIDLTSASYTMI

## CC(=O)N[C@H]1[C@H](O[C@H]2[C@H](O)[C@@H](O)[C@H](O[C@H]3[C@@H](O)[C@@H](CO)O[C@@H](O[C@H]4[C@H](O)[C@@H](O)[C@H](O[C@H]5[C@@H](O)[C@@H](CO)OC(O)[C@@H]5NC(C)=O)O[C@@H]4C(=O)O)[C@@H]3NC(C)=O)O[C@@H]2C(=O)O)O[C@H](CO)[C@H](O)[C@@H]1O[C@@H]1O[C@H](C(=O)O)[C@@H](O)[C@H](O)[C@H]1O (stereo partly drawn) [CH6, GlcA β1-3 (GalNAc β1-4 GlcA β1-3)2 GalNAc]
[1]; [7]
  Inhibition ratio: 5.2%
  V2 − V0: 29.0 µL
[2]
  V − V0 Value: <5.0 µL
[3]
  V − V0 Value: 33.3 ± 3.0 µL
[4]
  V − V0 Value: 5.8 ± 1.4 µL
[5]
  V − V0 Value: <5.0 µL

## CC(=O)N[C@H]1[C@H](O[C@H]2[C@H](O)[C@@H](O)[C@H](O[C@H]3[C@@H](O)[C@@H](CO)O[C@@H](O[C@H]4[C@H](O)[C@@H](O)[C@H](O[C@H]5[C@@H](O)[C@@H](CO)O[C@@H](O[C@H]6[C@H](O)[C@@H](O)[C@H](O[C@H]7[C@@H](O)[C@@H](CO)O[C@@H](O[C@H]8[C@H](O)[C@@H](O)[C@H](O[C@H]9[C@@H](O)[C@@H](CO)OC(O)[C@@H]9NC(C)=O)O[C@@H]8C(=O)O)[C@@H]7NC(C)=O)O[C@@H]6C(=O)O)[C@@H]5NC(C)=O)O[C@@H]4C(=O)O)[C@@H]3NC(C)=O)O[C@@H]2C(=O)O)O[C@H](CO)[C@H](O)[C@@H]1O[C@@H]1O[C@H](C(=O)O)[C@@H](O)[C@H](O)[C@H]1O (stereo partly drawn) [CH10, GlcA β1-3 (GalNAc β1-4 GlcA β1-3)4 GalNAc]
[1]; [7]
  Inhibition ratio: 38.2%
  V2 − V0: 18.9 µL
[2]
  V − V0 Value: <5.0 µL
[3]
  V − V0 Value: 171.5 µL
[4]
  V − V0 Value: 11.8 ± 3.3 µL
[5]
  V − V0 Value: <5.0 µL

## CC(=O)N[C@H]1[C@H](O[C@H]2[C@H](O)[C@@H](O)[C@H](O[C@H]3[C@@H](O)[C@@H](CO)OC(O)[C@@H]3NC(C)=O)O[C@@H]2C(=O)O)O[C@H](CO)[C@H](O)[C@@H]1O[C@@H]1O[C@H](C(=O)O)[C@@H](O)[C@H](O)[C@H]1O (stereo partly drawn) [CH4, GlcA β1-3 GalNAc β1-4 GlcA β1-3 GalNAc]
[1]; [7]
  Inhibition ratio: 12.7%
  V2 − V0: 26.7 µL
[1]; [8]
  Inhibition ratio: 32.0%
  V2 − V0: 20.8 µL
[1]; [9]
  Inhibition ratio: 48.0%
  V2 − V0: 15.9 µL
[6]; Table 5
  inhibition of binding of galectin-9N with LNnT (in words): inhibited by CH4 concentration-dependently
[6]; [10]
  Inhibition ratio: 16.7%
  V2 − V0: 16.9 µL
[6]; [11]
  Inhibition ratio: 26.1%
  V2 − V0: 15.0 µL
[6]; [7]
  Inhibition ratio: 32.5%
  V2 − V0: 13.7 µL
[6]; [8]
  Inhibition ratio: 71.4%
  V2 − V0: 5.8 µL
[3]
  V − V0 Value: 45.3 ± 4.8 µL
[4]
  V − V0 Value: <5.0 µL
[5]
  V − V0 Value: <5.0 µL
